Assay results from EPA's ToxValDB 9.5 (doi:10.2903/j.efsa.2020.6232).

What was measured:
Typhlodromus pyri = assay: LR50; higher = less toxic; settings: mortality
Apis mellifera = settings: acute, mortality
Pimephales promelas = settings: chronic/long-term; duration: 28 days
Tagia sp. = settings: chronic/long-term; reproduction
Oncorhynchus mykiss = settings: acute; duration: 96 hours; mortality
Bibionidae = settings: chronic/long-term; duration: 23 days; reproduction
Colinus virginianus = settings: acute, oral, mortality
Coturnix japonica = settings: reproduction developmental
Hypoaspis aculeifer = settings: chronic/long-term; reproduction

Cc1ccc(-c2c(Cl)nc(C#N)n2S(=O)(=O)N(C)C)cc1
LR50 (Typhlodromus pyri; acute, duration: 10 days): 256 g/ha | LR50 (Typhlodromus pyri; not reported): 80 g/ha | LD50 (Apis mellifera; dermal): 9.52 µg/piece | LD50 (Apis mellifera; oral, unspecified): > 31.8 µg/piece | NOEC (Pimephales promelas): 0.09 mg/L | NOEC (Tagia sp.): 2 mg/kg | LC50 (Oncorhynchus mykiss): > 0.107 µg/mL | NOEC (Bibionidae): 0.0117 mg/L | LD50 (Rattus norvegicus; acute, oral, mortality): > 5000 mg/kg-day | NOAEL (Rattus norvegicus; chronic, duration: 2 years, organ weight): 17 mg/kg-day | NOAEL (Rattus norvegicus; reproduction developmental, body weight): 89 mg/kg-day | NOAEL (Rattus norvegicus; subchronic, duration: 90 days, oral, organ weight): 29.5 mg/kg-day | LD50 (Colinus virginianus; diet): > 1280 mg/kg-day | LD50 (Colinus virginianus): > 2000 mg/kg-day | NOAEL (Coturnix japonica): 151 mg/kg-day | NOEC (Hypoaspis aculeifer): 18.7 mg/kg
